Reference: ChEMBL document CHEMBL3885861, “Open TG-GATES”

Species: Rattus norvegicus
Assay: Open TG-GATES - Regimen: Daily Repeat
Assay type: toxicity, organism-based, Sprague-Dawley
Design: regimen Daily Repeat, gender Male, age 6 weeks
Conditions: in vivo, po, 30 mg/kg, route gavage, dose level Middle; for APTT / Bas / Eos / Fbg / Hb / Ht / Lym / MCH / MCHC / MCV / Mono / Neu / PT / Plat / RBC / Ret / WBC: tissue Blood; for KIDNEY_L / KIDNEY_R / KIDNEY_TOTAL: tissue Kidney; for LIVER: tissue Liver; for A/G / ALP / ALT / AST / BUN / CRE / Ca / Cl / DBIL / GLC / IP / K / LDH / Na / PL / RALB / TBIL / TC / TG / TP / gamma-GTP: tissue Plasma

## Nc1ccc(Cc2ccc(N)cc2)cc1
72 h, time 3 day
  TERMINAL_BW: 240.8 g
  APTT: 13.8 s
  Bas: 0%
  Eos: 1%
  Fbg: 295.8 mg/dL
  Hb: 13.3 g/dL
  Ht: 39.3%
  Lym: 72.6%
  MCH: 20.5 pg
  MCHC: 33.8%
  MCV: 60.6 fL
  Mono: 2.6%
  Neu: 23%
  PT: 11.4 s
  Plat: 133.5 x10_4/uL
  RBC: 649.4 x10_4/ul
  Ret: 5.6%
  WBC: 112 x10_2/uL
  KIDNEY_L: 1 g
  KIDNEY_R: 1 g
  KIDNEY_TOTAL: 2 g
  LIVER: 12.3 g
  A/G: 0.8
  ALP: 1785.8 IU/L
  ALT: 59.4 IU/L
  AST: 104 IU/L
  BUN: 14.6 mg/dL
  CRE: 0.2 mg/dL
  Ca: 11.1 mg/dL
  Cl: 105.6 meq/L
  DBIL: 0.022 mg/dL
  GLC: 159.2 mg/dL
  IP: 7.5 mg/dL
  K: 4.2 meq/L
  LDH: 89.2 IU/L
  Na: 143.4 meq/L
  PL: 160 mg/dL
  RALB: 2.6 g/dL
  TBIL: 0.05 mg/dL
  TC: 95.8 mg/dL
  TG: 83.4 mg/dL
  TP: 5.8 g/dL
  gamma-GTP: 2 IU/L
[…], time 7 day
  TERMINAL_BW: 277.9 g
  APTT: 14.2 s
  Bas: 0.2%
  Eos: 0.8%
  Fbg: 286 mg/dL
  Hb: 13.7 g/dL
  Ht: 39.1%
  Lym: 71.6%
  MCH: 20.6 pg
  MCHC: 34.9%
  MCV: 59.1 fL
  Mono: 2.8%
  Neu: 23.8%
  PT: 11.4 s
  Plat: 147.7 x10_4/uL
  RBC: 663 x10_4/ul
  Ret: 5.2%
  WBC: 101.6 x10_2/uL
  KIDNEY_L: 1.1 g
  KIDNEY_R: 1.1 g
  KIDNEY_TOTAL: 2.2 g
  LIVER: 13.2 g
  A/G: 0.8
  ALP: 1631.6 IU/L
  ALT: 37 IU/L
  AST: 68 IU/L
  BUN: 17.4 mg/dL
  CRE: 0.2 mg/dL
  Ca: 11.2 mg/dL
  Cl: 105.2 meq/L
  DBIL: 0.026 mg/dL
  GLC: 173.6 mg/dL
  IP: 7.4 mg/dL
  K: 4.1 meq/L
  LDH: 85.2 IU/L
  Na: 143 meq/L
  PL: 145 mg/dL
  RALB: 2.7 g/dL
  TBIL: 0.064 mg/dL
  TC: 81 mg/dL
  TG: 125.2 mg/dL
  TP: 6 g/dL
  gamma-GTP: 1.2 IU/L
[…], time 14 day
  TERMINAL_BW: 333.9 g
  APTT: 15.3 s
  Bas: 0.2%
  Eos: 0.6%
  Fbg: 273.6 mg/dL
  Hb: 13.7 g/dL
  Ht: 39.6%
  Lym: 75%
  MCH: 20.1 pg
  MCHC: 34.7%
  MCV: 57.9 fL
  Mono: 2.2%
  Neu: 21.2%
  PT: 11.8 s
  Plat: 141.9 x10_4/uL
  RBC: 684.8 x10_4/ul
  Ret: 4.6%
  WBC: 128.9 x10_2/uL
  KIDNEY_L: 1.2 g
  KIDNEY_R: 1.2 g
  KIDNEY_TOTAL: 2.4 g
  LIVER: 15.2 g
  A/G: 0.8
  ALP: 1617.2 IU/L
  ALT: 38.4 IU/L
  AST: 66.4 IU/L
  BUN: 15.6 mg/dL
  CRE: 0.2 mg/dL
  Ca: 10.9 mg/dL
  Cl: 105 meq/L
  DBIL: 0.016 mg/dL
  GLC: 190.6 mg/dL
  IP: 6.8 mg/dL
  K: 3.7 meq/L
  LDH: 71.8 IU/L
  Na: 143.2 meq/L
  PL: 141.2 mg/dL
  RALB: 2.6 g/dL
  TBIL: 0.054 mg/dL
  TC: 72.8 mg/dL
  TG: 96.8 mg/dL
  TP: 6.1 g/dL
  gamma-GTP: 1 IU/L
[…], time 28 day
  TERMINAL_BW: 429.1 g
  APTT: 17.1 s
  Bas: 0.8%
  Eos: 1%
  Fbg: 273.4 mg/dL
  Hb: 14.9 g/dL
  Ht: 41.7%
  Lym: 76.8%
  MCH: 19.8 pg
  MCHC: 35.7%
  MCV: 55.5 fL
  Mono: 2.2%
  Neu: 19%
  PT: 11.9 s
  Plat: 109.8 x10_4/uL
  RBC: 752 x10_4/ul
  Ret: 2.7%
  WBC: 131.8 x10_2/uL
  KIDNEY_L: 1.4 g
  KIDNEY_R: 1.4 g
  KIDNEY_TOTAL: 2.9 g
  LIVER: 19.2 g
  A/G: 0.7
  ALP: 1167.6 IU/L
  ALT: 38.6 IU/L
  AST: 66.2 IU/L
  BUN: 15.4 mg/dL
  CRE: 0.2 mg/dL
  Ca: 11.1 mg/dL
  Cl: 104.8 meq/L
  DBIL: 0.024 mg/dL
  GLC: 178.6 mg/dL
  IP: 6.1 mg/dL
  K: 4 meq/L
  LDH: 74.6 IU/L
  Na: 145.2 meq/L
  PL: 141.6 mg/dL
  RALB: 2.6 g/dL
  TBIL: 0.062 mg/dL
  TC: 73.6 mg/dL
  TG: 110.4 mg/dL
  TP: 6.4 g/dL
  gamma-GTP: 1 IU/L
